In ChEMBL document CHEMBL5223069, “Design, synthesis and biological evaluation of vortioxetine derivatives as new COX-1/2 inhibitors in human monocytes” (Bioorg Med Chem, 2020):
pIC50: −log10 of the molar value. Active and inactive are the calls of the source. The calls are words filed in the database; no cut-off is given here.

Columns and labels:
Monocyte [1] = assay: Induction of TNF-alpha mRNA expression in human monocytes at 1 uM incubated for 1 hr by RT-PCR analysis; assay type: functional, cell-based
Monocyte [2] = assay: Modulation of LPS-induced TNF-alpha mRNA expression in human monocytes at 1 uM preincubated for 1 hr followed by LPS stimulation and measured after 30 mins by RT-PCR analysis; assay type: functional, cell-based; details: time 1.5 hrs
Monocyte [3] = assay: Induction of IL-6 mRNA expression in human monocytes at 1 uM incubated for 1 hr by RT-PCR analysis; assay type: functional, cell-based
Monocyte [4] = assay: Induction of IL-10 mRNA expression in human monocytes at 1 uM incubated for 1 hr by RT-PCR analysis; assay type: functional, cell-based
Monocyte [5] = assay: Modulation of LPS-induced IL-1beta mRNA expression in human monocytes at 1 uM preincubated for 1 hr followed by LPS stimulation and measured after 30 mins by RT-PCR analysis; assay type: functional, cell-based; details: time 1.5 hrs
Monocyte [6] = assay: Modulation of LPS-induced IL-6 mRNA expression in human monocytes at 1 uM preincubated for 1 hr followed by LPS stimulation and measured after 30 mins by RT-PCR analysis; assay type: functional, cell-based; details: time 1.5 hrs
Monocyte [7] = assay: Induction of IL-1beta mRNA expression in human monocytes at 1 uM incubated for 1 hr by RT-PCR analysis; assay type: functional, cell-based
Monocyte [8] = assay: Modulation of LPS-induced IL-10 mRNA expression in human monocytes at 1 uM preincubated for 1 hr followed by LPS stimulation and measured after 30 mins by RT-PCR analysis; assay type: functional, cell-based; details: time 1.5 hrs
[9] = target: T1, Prostaglandin G/H synthase 2 (Homo sapiens) (UniProt P35354); details: dose 0.1-50 nM
T1 sequence (whole entry): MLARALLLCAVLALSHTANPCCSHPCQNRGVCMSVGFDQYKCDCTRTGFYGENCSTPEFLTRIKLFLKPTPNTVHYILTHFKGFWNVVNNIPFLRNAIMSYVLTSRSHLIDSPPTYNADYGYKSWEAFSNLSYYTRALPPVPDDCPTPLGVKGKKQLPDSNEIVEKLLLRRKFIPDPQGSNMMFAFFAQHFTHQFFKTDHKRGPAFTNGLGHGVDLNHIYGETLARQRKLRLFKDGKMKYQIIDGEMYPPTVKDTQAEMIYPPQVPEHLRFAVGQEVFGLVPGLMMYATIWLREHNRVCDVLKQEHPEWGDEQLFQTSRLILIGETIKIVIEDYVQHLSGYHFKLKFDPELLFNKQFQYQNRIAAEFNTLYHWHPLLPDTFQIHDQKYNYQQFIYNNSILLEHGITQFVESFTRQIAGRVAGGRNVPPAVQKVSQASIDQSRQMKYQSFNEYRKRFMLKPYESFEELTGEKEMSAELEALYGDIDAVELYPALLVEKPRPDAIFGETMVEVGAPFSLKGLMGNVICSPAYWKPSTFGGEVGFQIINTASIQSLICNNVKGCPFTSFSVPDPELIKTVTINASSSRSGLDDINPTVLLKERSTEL
Description: Inhibition of human COX-2 at 0.1 to 50 nM by spectrophotometer analysis

Monocyte [10] = assay: Induction of superoxide anion production in human monocytes assessed as increase in reduced cytochrome C level at 0.0025 to 1 uM incubated for 1 hr; assay type: functional, cell-based; details: dose 0.0025-1 µM
Monocyte [11] = assay: Inhibition of PMA-induced oxidative burst in human monocytes at 0.1 to 50 nM preincubated for 1 hr followed by PMA stimulation and measured after 30 mins relative to control; assay type: functional; details: dose 0.1-50 nM, time 1.5 hrs
Monocyte [12] = assay: Cytotoxicity against human monocytes assessed as reduction in cell viability at 0.01 to 10 uM incubated for 1 to 6 hrs by MTT assay; assay type: toxicity, cell-based; details: dose lower 0.01 µM, time lower 1 hrs, dose upper 10 µM, time upper 6 hrs
Monocyte [13] = assay: Induction of IL-10 mRNA expression in human monocytes at 7.5 nM incubated for 1 hr by RT-PCR analysis; assay type: functional, cell-based
Monocyte [14] = assay: Modulation of LPS-induced IL-10 mRNA expression in human monocytes at 7.5 nM preincubated for 1 hr followed by LPS stimulation and measured after 30 mins by RT-PCR analysis; assay type: functional, cell-based; details: time 1.5 hrs
Monocyte [15] = assay: Inhibition of PMA-induced oxidative burst in human monocytes preincubated for 1 hr followed by PMA stimulation and measured after 30 mins; assay type: functional, cell-based
Monocyte [16] = assay: Inhibition of PMA-induced IL-1beta mRNA expression in human monocytes at 7.5 nM preincubated for 1 hr followed by PMA stimulation and measured after 30 mins by RT-PCR analysis; assay type: functional, cell-based; details: time 1.5 hrs
Monocyte [17] = assay: Induction of IL-6 mRNA expression in human monocytes at 7.5 nM incubated for 1 hr by RT-PCR analysis; assay type: functional, cell-based
Monocyte [18] = assay: Induction of TNF-alpha mRNA expression in human monocytes at 7.5 nM incubated for 1 hr by RT-PCR analysis; assay type: functional, cell-based
Monocyte [19] = assay: Modulation of LPS-induced TNF-alpha mRNA expression in human monocytes at 7.5 nM preincubated for 1 hr followed by LPS stimulation and measured after 30 mins by RT-PCR analysis; assay type: functional, cell-based; details: time 1.5 hrs
Monocyte [20] = assay: Modulation of LPS-induced IL-6 mRNA expression in human monocytes at 7.5 nM preincubated for 1 hr followed by LPS stimulation and measured after 30 mins by RT-PCR analysis; assay type: functional, cell-based; details: time 1.5 hrs
Monocyte [21] = assay: Modulation of COX-1 mRNA expression in human monocytes at 7.5 nM incubated for 1 hr by RT-PCR analysis; assay type: functional, cell-based
Monocyte [22] = assay: Induction of IL-1beta mRNA expression in human monocytes at 7.5 nM incubated for 1 hr by RT-PCR analysis; assay type: functional, cell-based
Monocyte [23] = assay: Downregulation of PMA-induced TNF-alpha mRNA expression in human monocytes at 7.5 nM preincubated for 1 hr followed by PMA stimulation and measured after 30 mins by RT-PCR analysis; assay type: functional, cell-based; details: time 1.5 hrs
Monocyte [24] = assay: Modulation of LPS-induced IL-1beta mRNA expression in human monocytes at 7.5 nM preincubated for 1 hr followed by LPS stimulation and measured after 30 mins by RT-PCR analysis; assay type: functional, cell-based; details: time 1.5 hrs
Monocyte [25] = assay: Inhibition of PMA-induced COX-2 expression in human monocytes at 7.5 nM preincubated for 1 hr followed by PMA stimulation and measured after 30 mins by RT-PCR analysis; assay type: functional, cell-based; details: time 1.5 hrs
[26] = target: Prostaglandin G/H synthase 1 (Homo sapiens) (UniProt P23219); assay: Inhibition of human COX-1 at 0.1 to 50 nM by spectrophotometer analysis; details: dose 0.1-50 nM
Chain of Prostaglandin G/H synthase 1 (Homo sapiens) (P23219 whole entry): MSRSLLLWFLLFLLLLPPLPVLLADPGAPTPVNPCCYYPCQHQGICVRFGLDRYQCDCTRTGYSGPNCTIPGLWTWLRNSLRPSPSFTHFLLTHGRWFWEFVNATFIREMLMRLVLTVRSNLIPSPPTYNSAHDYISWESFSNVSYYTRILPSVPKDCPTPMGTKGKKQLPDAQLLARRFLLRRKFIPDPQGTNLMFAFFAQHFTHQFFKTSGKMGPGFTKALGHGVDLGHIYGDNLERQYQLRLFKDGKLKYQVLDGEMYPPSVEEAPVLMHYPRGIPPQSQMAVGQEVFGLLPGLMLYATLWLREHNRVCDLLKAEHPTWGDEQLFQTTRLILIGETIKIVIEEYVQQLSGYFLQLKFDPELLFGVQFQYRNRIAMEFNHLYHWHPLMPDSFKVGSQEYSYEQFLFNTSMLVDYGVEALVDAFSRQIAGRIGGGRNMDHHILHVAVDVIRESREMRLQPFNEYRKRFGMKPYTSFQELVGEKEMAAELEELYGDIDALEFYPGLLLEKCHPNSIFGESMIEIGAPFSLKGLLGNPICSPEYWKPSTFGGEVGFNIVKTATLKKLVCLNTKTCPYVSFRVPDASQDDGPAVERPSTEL

Monocyte [27] = assay: Downregulation of PMA-induced IL-6 mRNA expression in human monocytes at 7.5 nM preincubated for 1 hr followed by PMA stimulation and measured after 30 mins by RT-PCR analysis; assay type: functional, cell-based; details: time 1.5 hrs

With `CS(=O)(=O)c1ccc(C2=C(c3ccccc3)C(=O)OC2)cc1` the Activity (Monocyte [1]) was “inactive”, the Activity (Monocyte [2]) was “inactive” and the Activity (Monocyte [3]) was “inactive”. For the same molecule, the Activity (Monocyte [4]) was “inactive”, the Activity (Monocyte [5]) was “inactive” and the Activity (Monocyte [6]) was “inactive”. The Activity (Monocyte [7]) was “inactive”, the Activity (Monocyte [8]) was “inactive” and the inhibition [9] was “Active”.
In the case of `Cc1ccc(Sc2ccccc2N2CCNCC2)c(C)c1` [VORTIOXETINE], the Activity (Monocyte [10]) was “inactive”, the “inhibition (INH)” value (Monocyte [11]) was 90% and the Activity (Monocyte [12]) was “Non-Toxic”. The Activity (Monocyte [13]) was “inactive”, the Activity (Monocyte [14]) was “inactive” and the pIC50 (Monocyte [15]) was 8.54. For the same molecule, the inhibition (Monocyte [16]) was “Active”, the Activity (Monocyte [17]) was “inactive” and the Activity (Monocyte [18]) was “inactive”. The Activity (Monocyte [19]) was “inactive”, the Activity (Monocyte [20]) was “inactive” and the Activity (Monocyte [21]) was “inactive”. The Activity (Monocyte [22]) was “inactive”, the Activity (Monocyte [23]) was “Active” and the Activity (Monocyte [24]) was “inactive”.
With `Cc1ccc(Sc2ccccc2N2CCN(CCO)CC2)c(C)c1` the Activity (Monocyte [10]) was “inactive” and the Activity (Monocyte [12]) was “Non-Toxic”.
With `Cc1ccc(Sc2ccccc2N2CCN(Cc3ccccc3F)CC2)c(C)c1` the inhibition (Monocyte [25]) was “Active”, the Activity (Monocyte [10]) was “inactive” and the “inhibition (INH)” value (Monocyte [11]) was 70%. The Activity (Monocyte [12]) was “Non-Toxic”, the Activity (Monocyte [13]) was “inactive” and the Activity (Monocyte [14]) was “Active”. For the same molecule, the pIC50 (Monocyte [15]) was 8.19, the Activity (Monocyte [17]) was “inactive” and the inhibition [26] was “Active”. For the same molecule, the Activity (Monocyte [18]) was “inactive”, the Activity (Monocyte [19]) was “inactive” and the Activity (Monocyte [20]) was “inactive”. For the same molecule, the Activity (Monocyte [27]) was “Active”, the Activity (Monocyte [21]) was “inactive” and the Activity (Monocyte [22]) was “inactive”. The inhibition [9] was “Active” and the Activity (Monocyte [24]) was “inactive”.
In the case of `CCN1CCN(c2ccccc2Sc2ccc(C)cc2C)CC1`, the Activity (Monocyte [10]) was “inactive” and the Activity (Monocyte [12]) was “Non-Toxic”.
With `Cc1ccc(Sc2ccccc2N2CCN(CC3CCCC3)CC2)c(C)c1` the Activity (Monocyte [10]) was “inactive”, the “inhibition (INH)” value (Monocyte [11]) was 70% and the Activity (Monocyte [12]) was “Non-Toxic”. For the same molecule, the Activity (Monocyte [13]) was “inactive”, the Activity (Monocyte [14]) was “inactive” and the pIC50 (Monocyte [15]) was 8.57. The Activity (Monocyte [17]) was “inactive”, the inhibition [26] was “Active” and the Activity (Monocyte [18]) was “inactive”. The Activity (Monocyte [19]) was “inactive”, the Activity (Monocyte [20]) was “inactive” and the Activity (Monocyte [21]) was “inactive”. The Activity (Monocyte [22]) was “inactive”, the inhibition [9] was “Active” and the Activity (Monocyte [24]) was “inactive”.
`Cc1ccc(Sc2ccccc2N2CCN(S(C)(=O)=O)CC2)c(C)c1` was tested, and the Activity (Monocyte [10]) was “inactive” and the Activity (Monocyte [12]) was “Non-Toxic”.
With `Cc1ccc(Sc2ccccc2N2CCN(Cc3ccc(Cl)cc3)CC2)c(C)c1` the Activity (Monocyte [10]) was “inactive” and the Activity (Monocyte [12]) was “Non-Toxic”.
`COc1ccc2c(c1)c(CC(=O)O)c(C)n2C(=O)c1ccc(Cl)cc1` was tested, and the Activity (Monocyte [1]) was “inactive”, the Activity (Monocyte [2]) was “inactive” and the Activity (Monocyte [3]) was “inactive”. The Activity (Monocyte [4]) was “inactive”, the Activity (Monocyte [5]) was “inactive” and the Activity (Monocyte [6]) was “inactive”. The Activity (Monocyte [7]) was “inactive” and the Activity (Monocyte [8]) was “inactive”.
`Cc1ccc(Sc2ccccc2N2CCN(Cc3ccccc3C(F)(F)F)CC2)c(C)c1` was tested, and the Activity (Monocyte [10]) was “inactive”, the “inhibition (INH)” value (Monocyte [11]) was 80% and the Activity (Monocyte [12]) was “Non-Toxic”. The Activity (Monocyte [13]) was “inactive”, the Activity (Monocyte [14]) was “inactive” and the pIC50 (Monocyte [15]) was 8.20. For the same molecule, the Activity (Monocyte [17]) was “inactive”, the inhibition [26] was “Active” and the Activity (Monocyte [18]) was “inactive”. For the same molecule, the Activity (Monocyte [19]) was “inactive”, the Activity (Monocyte [20]) was “inactive” and the Activity (Monocyte [21]) was “inactive”. The Activity (Monocyte [22]) was “inactive” and the Activity (Monocyte [24]) was “inactive”.
In the case of `Cc1ccc(Sc2ccccc2N2CCN(CC(=O)O)CC2)c(C)c1`, the Activity (Monocyte [10]) was “inactive”, the “inhibition (INH)” value (Monocyte [11]) was 90% and the Activity (Monocyte [12]) was “Non-Toxic”. For the same molecule, the Activity (Monocyte [13]) was “Active”, the Activity (Monocyte [14]) was “inactive” and the pIC50 (Monocyte [15]) was 9.46. The Activity (Monocyte [17]) was “inactive”, the inhibition [26] was “Active” and the Activity (Monocyte [18]) was “inactive”. The Activity (Monocyte [19]) was “inactive”, the Activity (Monocyte [20]) was “inactive” and the Activity (Monocyte [21]) was “inactive”. The Activity (Monocyte [22]) was “inactive” and the Activity (Monocyte [24]) was “inactive”.
In the case of `CC(=O)N1CCN(c2ccccc2Sc2ccc(C)cc2C)CC1`, the Activity (Monocyte [10]) was “inactive” and the Activity (Monocyte [12]) was “Non-Toxic”.
For `Cc1ccc(S(=O)(=O)N2CCN(c3ccccc3Sc3ccc(C)cc3C)CC2)cc1`, the Activity (Monocyte [10]) was “inactive” and the Activity (Monocyte [12]) was “Non-Toxic”.
